From patent US20030118627A1 (DABUR RESEARCH FOUNDATION, priority 2001, published 2003)

Legend:
L132 = test: MTT cytotoxicity assay, L132 lung; assay type: cell-based; details: Homo sapiens, read-out: Percent cytotoxicity; for cytotoxicity at 1000 µM: 1.0 mM; for cytotoxicity at 2500 µM: 2.5 mM; for cytotoxicity at 4000 µM: 4 mM; for cytotoxicity at 5000 µM: 5 mM; for cytotoxicity at 10000 µM: 10 mM
Protocol: (§1) Briefly, a […] MTT cytotoxicity assay was performed, which is based on the principle of uptake of MTT (3-(4,5-dimethylthiazol-2-yl)-2,5-diphenyl tetrazolium bromide), a tetrazolium salt, by the metabolically active cells where it is metabolized by active mitochondria into a blue colored formazan product that is read spectrophoto-metrically. MTT was dissolved in phosphate buffered saline with a pH of 7.4 to obtain an MTT concentration of 5 mg/ml; the resulting mixture was filtered through a 0.22 micron filter to sterilize and remove a small amount of insoluble residue. For each type of tumor cell, 20,000 to 50,000 cells were seeded in a 96-well culture plate and incubated with the combination in a CO2 incubator for 24 hours. […] The assay was terminated after 24 hours by adding 100 ug (20 ul) of MTT to each well, then incubating for additional one hour, and finally adding 50 ul of 10% SDS-0.01N HCl to each well to lyse the cells and dissolve formazan. After incubating for one hour, the plate was read spectrophotometrically at 540 nm and the percentage cytotoxicity calculated.

PA 1 = test: MTT cytotoxicity assay, PA 1 ovary; assay type: cell-based; details: Homo sapiens; for cytotoxicity at 1000 µM / cytotoxicity at 2500 µM / cytotoxicity at 4000 µM / cytotoxicity at 5000 µM / cytotoxicity at 10000 µM: PA 1 Ovary, read-out: Percent cytotoxicity; for cytotoxicity at 1000 µM: 1.0 mM; for cytotoxicity at 2500 µM: 2.5 mM; for cytotoxicity at 4000 µM: 4 mM; for cytotoxicity at 5000 µM: 5 mM; for cytotoxicity at 10000 µM: 10 mM
Protocol: as §1

DU145 = test: MTT cytotoxicity assay, DU145 prostate; assay type: cell-based; details: Homo sapiens, read-out: Percent cytotoxicity; for cytotoxicity at 1000 µM: DU-145, 1.0 mM; for cytotoxicity at 2500 µM: DU-145, 2.5 mM; for cytotoxicity at 4000 µM: DU-145, 4 mM; for cytotoxicity at 5000 µM: DU-145, 5 mM; for cytotoxicity at 10000 µM: DU-145, 10 mM
Protocol: as §1

MCF7 = test: MTT cytotoxicity assay, MCF7 breast; assay type: cell-based; details: Homo sapiens, MCF7 breast, read-out: Percent cytotoxicity; for cytotoxicity at 1000 µM: 1.0 mM; for cytotoxicity at 2500 µM: 2.5 mM; for cytotoxicity at 4000 µM: 4 mM; for cytotoxicity at 5000 µM: 5 mM; for cytotoxicity at 10000 µM: 10 mM
Protocol: as §1

MOLT 4 = test: MTT cytotoxicity assay, MOLT 4 leukemia; assay type: cell-based; details: Homo sapiens, MOLT 4 Leukemia, read-out: Percent cytotoxicity; for cytotoxicity at 1000 µM: 1.0 mM; for cytotoxicity at 2500 µM: 2.5 mM; for cytotoxicity at 4000 µM: 4 mM; for cytotoxicity at 5000 µM: 5 mM; for cytotoxicity at 10000 µM: 10 mM
Protocol: as §1

Miapaca2 = test: MTT cytotoxicity assay, Miapaca2 pancreas; assay type: cell-based; details: Homo sapiens, read-out: Percent cytotoxicity; for cytotoxicity at 1000 µM: MIA PaCa-2, 1.0 mM; for cytotoxicity at 2500 µM: MIA PaCa-2, 2.5 mM; for cytotoxicity at 4000 µM: MIA PaCa-2, 4 mM; for cytotoxicity at 5000 µM: MIA PaCa-2, 5 mM; for cytotoxicity at 10000 µM: MIA PaCa-2, 10 mM
Protocol: as §1

Swiss albino mice = details: both, mouse, in vivo, po, 15 days
Protocol: Acute toxicity studies were performed using the oral route of administration.
A batch of 5 female and 5 male mice each was administered the test substance by oral route. […] Another batch of 5 female and 5 male served as control.
Observations were made three times on the day of dosing and twice daily thereafter for the remainder of 14 days or until reversible toxic signs or symptoms subsided. All gross visible toxic signs and symptoms were recorded. Body weights were recorded prior to dosing and weekly thereafter.

PTC = test: MTT cytotoxicity assay, PTC colon; assay type: cell-based; details: Homo sapiens, read-out: Percent cytotoxicity; for cytotoxicity at 1000 µM: 1.0 mM; for cytotoxicity at 2500 µM: 2.5 mM; for cytotoxicity at 4000 µM: 4 mM; for cytotoxicity at 5000 µM: 5 mM; for cytotoxicity at 10000 µM: 10 mM
Protocol: as §1

293 = test: MTT cytotoxicity assay, 293 kidney; assay type: cell-based; details: Homo sapiens, HEK293, 24 h, read-out: ED50 values of cytotoxicity
Protocol: as §1

## CC(=O)OC(C(C)=O)N1C(=O)CCC1C(=O)OCc1ccccc1 (centres unmarked) [MGC-6, N-(1-acetoxy-2-ketopropyl)-benzylpyroglutamate]
L132
  cytotoxicity at 1000 µM: 2.7 ± 0.2%
  cytotoxicity at 2500 µM: 34.8 ± 5.8%
  cytotoxicity at 4000 µM: 53.9 ± 5%
  cytotoxicity at 5000 µM: 67.9 ± 5%
  cytotoxicity at 10000 µM: 74.7 ± 7.3%
PA 1
  cytotoxicity at 1000 µM: 42.9 ± 4.9%
  cytotoxicity at 2500 µM: 63.9 ± 4.9%
  cytotoxicity at 4000 µM: 86.9 ± 6.9%
  cytotoxicity at 5000 µM: 88.7 ± 5.9%
  cytotoxicity at 10000 µM: 84 ± 7.5%
DU145
  cytotoxicity at 1000 µM: 37.8 ± 2.6%
  cytotoxicity at 2500 µM: 56.9 ± 4.2%
  cytotoxicity at 4000 µM: 78.9 ± 7.4%
  cytotoxicity at 5000 µM: 81.5 ± 7.3%
  cytotoxicity at 10000 µM: 85.9 ± 6.9%
MCF7
  cytotoxicity at 1000 µM: 0%
  cytotoxicity at 2500 µM: 0%
  cytotoxicity at 4000 µM: 0%
  cytotoxicity at 5000 µM: 13.9 ± 1.1%
  cytotoxicity at 10000 µM: 23.9 ± 2.9%
MOLT 4
  cytotoxicity at 1000 µM: 41.9 ± 4.2%
  cytotoxicity at 2500 µM: 61.9 ± 5.3%
  cytotoxicity at 4000 µM: 84.9 ± 7.4%
  cytotoxicity at 5000 µM: 84.8 ± 3.9%
  cytotoxicity at 10000 µM: 87.1 ± 6.8%
Miapaca2
  cytotoxicity at 1000 µM: 0%
  cytotoxicity at 2500 µM: 23.7 ± 2%
  cytotoxicity at 4000 µM: 51.9 ± 5.2%
  cytotoxicity at 5000 µM: 58.5 ± 5%
  cytotoxicity at 10000 µM: 67.4 ± 3%
Swiss albino mice
  safe dose: 75 mg
PTC
  cytotoxicity at 1000 µM: 38.9 ± 3.9%
  cytotoxicity at 2500 µM: 59.7 ± 5.3%
  cytotoxicity at 4000 µM: 75.9 ± 4%
  cytotoxicity at 5000 µM: 80.6 ± 7.4%
  cytotoxicity at 10000 µM: 86.4 ± 4%

## CCOC(=O)C1CCC(=O)N1C(OC(C)=O)C(C)=O (centres unmarked) [MGC-8]
L132
  cytotoxicity at 1000 µM: 8 ± 1.5%
  cytotoxicity at 2500 µM: 12 ± 3.3%
  cytotoxicity at 4000 µM: 25 ± 3.5%
  cytotoxicity at 5000 µM: 35 ± 4.1%
  cytotoxicity at 10000 µM: 45 ± 5.1%
PA 1; 24 h, PA 1 Ovarian, read-out: ED50 values of cytotoxicity
  IC50: 1800 ± 700 µM
PA 1
  cytotoxicity at 1000 µM: 38 ± 3.7%
  cytotoxicity at 2500 µM: 56 ± 4.8%
  cytotoxicity at 4000 µM: 64.5 ± 5.3%
  cytotoxicity at 5000 µM: 69 ± 2.1%
  cytotoxicity at 10000 µM: 71.7 ± 6.3%
DU145
  cytotoxicity at 1000 µM: 43 ± 3.8%
  cytotoxicity at 2500 µM: 67.4 ± 5.2%
  cytotoxicity at 4000 µM: 69.9 ± 7.9%
  cytotoxicity at 5000 µM: 73.5 ± 3%
  cytotoxicity at 10000 µM: 79.3 ± 1.9%
MCF7
  cytotoxicity at 1000 µM: 16 ± 4.1%
  cytotoxicity at 2500 µM: 36 ± 3.5%
  cytotoxicity at 4000 µM: 70 ± 4.5%
  cytotoxicity at 5000 µM: 73 ± 6%
  cytotoxicity at 10000 µM: 87 ± 7%
MOLT 4
  cytotoxicity at 1000 µM: 40.3 ± 2.9%
  cytotoxicity at 2500 µM: 58.3 ± 4.9%
  cytotoxicity at 4000 µM: 65 ± 5.9%
  cytotoxicity at 5000 µM: 75.2 ± 2.9%
  cytotoxicity at 10000 µM: 81.9 ± 5.2%
Miapaca2
  cytotoxicity at 1000 µM: 0%
  cytotoxicity at 2500 µM: 61 ± 2.5%
  cytotoxicity at 4000 µM: 89 ± 4.5%
  cytotoxicity at 5000 µM: 88 ± 4.5%
  cytotoxicity at 10000 µM: 86 ± 5%
293
  IC50: 2900 ± 500 µM
Swiss albino mice
  safe dose: 100 mg
PTC
  cytotoxicity at 1000 µM: 32.2 ± 3.9%
  cytotoxicity at 2500 µM: 48.6 ± 2.9%
  cytotoxicity at 4000 µM: 67.7 ± 4.8%
  cytotoxicity at 5000 µM: 76.3 ± 1%
  cytotoxicity at 10000 µM: 79.6 ± 3%
